In US20230277553A1, “THERAPEUTIC COMPOSITION OF CURE-PRO COMPOUNDS FOR TARGETED DEGRADATION OF BET DOMAIN PROTEINS, AND METHODS OF MAKING AND USAGE” (CORNELL UNIVERSITY, priority 2020, published 2023):
Entries after “also recorded” stand apart in the source; their conditions may differ.

Experiments:
SLC19A1 = test: Suppression of c-MYC downstream target gene SLC19A1, RT-PCR (Cells-to-Ct), HeLa cells; type: cell-based, Human; conditions: 24 h, 10 μM each
Procedure: The suppression of the expression of the downstream c-MYC target, SLC19A1, was measured by RT-PCR using Power SYBR© Green Cells-to-Ct™ Kit (Life Technologies). Adherent cells were plated on 96 well plates at 5,000 cells per well were treated for 24h with monomer compounds and compounds capable of reversible interactions (1 nM-100 μM). Cells were subsequently washed in ice-cold PBS processed according to the manufacturer's instructions. Quantitative real-time PCR was performed using a ViiA™ 7 Real-time PCR System (Applied Biosystems, Foster City, Calif., USA). GAPDH and ACTB served as internal controls. The primers used were (5′-3′): GAPDH-F: AGCCACATCGCTCAGACAC (SEQ ID NO:9), GAPDH-R: GCCCAATACGACCAAATCC (SEQ ID NO:10), ACTB —F: CCAACCGCGAGAAGATGA (SEQ ID NO: 11), ACTB -R: […] (SEQ ID NO: 12), SLC19A1-F: […] (SEQ ID NO:13), SLC19A1-R: […] (SEQ ID NO: 14).
HeLa cells (1×104) were treated for 24 hours in 96 well plates with the compounds solubilized in DMSO. Compounds were added at 10 μM each and RNA expression measured by the Cells-to Ct method described above (Thermofisher). CURE-PRO-mediated suppression of the downstream target gene of c-MYC, SLC19A1, after BRD4 degradation was evident in cells treated with the combination of BRD-N25 and 8310 or 8312 (FIG. 66) and BRD-N39 and 8310 and 8312 (FIG. 67) as indicated by a rightward shift in the curve and in increase in the Ct values.

BRD3 = biological target: T1, BRD3 (Homo sapiens, UniProt Q15059); test: CURE-PRO-mediated BRD3 degradation with MDM2 ligands, Western blot, HCT116 cells; type: cell-based; conditions: HCT116, 24 h, 1:1, 10 μM
T1 construct: endogenous in cells; host or cells: HCT116
T1 sequence (Q15059 whole entry): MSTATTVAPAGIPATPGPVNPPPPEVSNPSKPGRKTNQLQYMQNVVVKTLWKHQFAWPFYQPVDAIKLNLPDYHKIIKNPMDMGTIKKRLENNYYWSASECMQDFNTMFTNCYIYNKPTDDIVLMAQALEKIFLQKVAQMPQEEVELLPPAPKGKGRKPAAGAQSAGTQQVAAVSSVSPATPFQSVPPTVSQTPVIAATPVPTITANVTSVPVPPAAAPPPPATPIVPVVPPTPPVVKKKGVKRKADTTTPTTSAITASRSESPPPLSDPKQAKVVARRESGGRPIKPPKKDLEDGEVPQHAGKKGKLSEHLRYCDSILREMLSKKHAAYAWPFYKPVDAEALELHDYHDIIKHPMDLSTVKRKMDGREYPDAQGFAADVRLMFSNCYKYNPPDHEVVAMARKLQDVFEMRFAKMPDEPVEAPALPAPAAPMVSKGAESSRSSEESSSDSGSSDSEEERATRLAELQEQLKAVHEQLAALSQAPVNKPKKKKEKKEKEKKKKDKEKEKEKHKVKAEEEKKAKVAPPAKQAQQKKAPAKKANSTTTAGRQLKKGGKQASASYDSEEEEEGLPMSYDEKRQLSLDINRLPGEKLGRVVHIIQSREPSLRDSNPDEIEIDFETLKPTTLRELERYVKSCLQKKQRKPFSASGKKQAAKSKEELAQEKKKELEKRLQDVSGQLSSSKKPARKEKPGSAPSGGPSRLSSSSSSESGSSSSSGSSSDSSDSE
Source text: Anti-BRD4 (13440, 1:1,000 dilution for Western Blot and 1:25 dilution for ProteinSimple); Anti-BRD2 (5848 1:1,000 dilution for Western Blot and 1:25 dilution for ProteinSimple); β-Actin (3700, 1:2,000 dilution for Western Blot), β-Actin (4970, 1:50 dilution for ProteinSimple) anti-mouse IgG-HRP, and anti-rabbit IgG-HRP antibodies were purchased Cell Signaling Technology. Anti-GAPDH (600-401-A33, 1:100 dilution for ProteinSimple) was purchased from Rockland Immunochemicals, Inc. Anti-BRD3 (sc-81202, 1:200 dilution for Western Blot) was purchased from Santa Cruz Biotechnology.
HeLa, MCF7, or HCT116 cells (2.5-3×10^6) were treated for 24 hours with the indicated compounds solubilized in DMSO. The cells were washed in ice-cold PBS and were then lysed in RIPA lysis buffer (150 mM NaCl, 5 mM EDTA, 1% NP-40, 0.5% sodium deoxycholate, 0.1% SDS, 50 mM Tris, pH 8.0.) with Roche protease inhibitor complete cocktail and phosphatase inhibitors (10 mM sodium fluoride, 10 mM sodium pyrophosphate, 1 mM sodium orthovanadate and 20 mM β-glycerophosphate). The total protein concentrations were determined by Bradford Protein Assay and 10-20 μg of protein was loaded onto 4-15% Tris-Glycine gradient gels (Biorad). […] Signal was detected with ECL Western Blotting Substrate (Pierce) and X-ray film processed with a Konica SRX-101 X-ray film processor or captured by Bio-Rad's Chemidoc Imaging system. […]

Structure (SMILES)	Suppression of SLC19A1 expression, combination with 8310 (SLC19A1)	Suppression of SLC19A1 expression, combination with 8312 (SLC19A1)	BRD3 degradation, in combination with MDM2 ligands 8310 and 8312 (BRD3)
CCNC(=O)C[C@@H]1N=C(c2ccc(Cl)cc2)c2cc(OCCOCCNC(=O)c3cccc(O)c3O)ccc2-n2c(C)nnc21 [BRD-N39, N-(2-(2-(((4S)-6-(4-chlorophenyl)-4-(2-(ethylamino)-2-oxoethyl)-1-methyl-4H-benzo[f][1,2,4]triazolo[4,3-a][1,4]diazepin-8-yl)oxy)ethoxy)ethyl)-2,3-dihydroxybenzamide]	evident; also recorded: suppression to levels comparable to that of JQ1 treatment	Complete suppression of SLC19A1 was evident; also recorded: completely suppressed	degradation of BRD3; also recorded: Degradation is evident
CCNC(=O)C[C@@H]1N=C(c2ccc(Cl)cc2)c2cc(OCCNC(=O)c3cccc(O)c3O)ccc2-n2c(C)nnc21 [BRD-N25]	evident	evident; also recorded: suppressed more substantially	degradation of BRD3; also recorded: Degradation is evident
